Drawing on US20220259202A1, “1-(4-(AMINOMETHYL)BENZYL)-2-BUTYL-2H-PYRAZOLO[3,4-C]QUINOLIN-4-AMINE DERIVATIVES AND RELATED COMPOUNDS AS TOLL-LIKE RECEPTOR (TLR) 7/8 AGONISTS, AS WELL AS ANTIBODY DRUG CONJUGATES THEREOF FOR USE IN CANCER THERAPY AND DIAGNOSIS” (SUTRO BIOPHARMA, INC., priority 2019, published 2022), this text covers EC50 for 1 compound.

SMILES strings stand for the structures.

The assay addresses T1, human TLR8 (Homo sapiens, UniProt Q9NR97).
T1 construct: host or cells: HEK293
T1 sequence (Q9NR97 27-1041): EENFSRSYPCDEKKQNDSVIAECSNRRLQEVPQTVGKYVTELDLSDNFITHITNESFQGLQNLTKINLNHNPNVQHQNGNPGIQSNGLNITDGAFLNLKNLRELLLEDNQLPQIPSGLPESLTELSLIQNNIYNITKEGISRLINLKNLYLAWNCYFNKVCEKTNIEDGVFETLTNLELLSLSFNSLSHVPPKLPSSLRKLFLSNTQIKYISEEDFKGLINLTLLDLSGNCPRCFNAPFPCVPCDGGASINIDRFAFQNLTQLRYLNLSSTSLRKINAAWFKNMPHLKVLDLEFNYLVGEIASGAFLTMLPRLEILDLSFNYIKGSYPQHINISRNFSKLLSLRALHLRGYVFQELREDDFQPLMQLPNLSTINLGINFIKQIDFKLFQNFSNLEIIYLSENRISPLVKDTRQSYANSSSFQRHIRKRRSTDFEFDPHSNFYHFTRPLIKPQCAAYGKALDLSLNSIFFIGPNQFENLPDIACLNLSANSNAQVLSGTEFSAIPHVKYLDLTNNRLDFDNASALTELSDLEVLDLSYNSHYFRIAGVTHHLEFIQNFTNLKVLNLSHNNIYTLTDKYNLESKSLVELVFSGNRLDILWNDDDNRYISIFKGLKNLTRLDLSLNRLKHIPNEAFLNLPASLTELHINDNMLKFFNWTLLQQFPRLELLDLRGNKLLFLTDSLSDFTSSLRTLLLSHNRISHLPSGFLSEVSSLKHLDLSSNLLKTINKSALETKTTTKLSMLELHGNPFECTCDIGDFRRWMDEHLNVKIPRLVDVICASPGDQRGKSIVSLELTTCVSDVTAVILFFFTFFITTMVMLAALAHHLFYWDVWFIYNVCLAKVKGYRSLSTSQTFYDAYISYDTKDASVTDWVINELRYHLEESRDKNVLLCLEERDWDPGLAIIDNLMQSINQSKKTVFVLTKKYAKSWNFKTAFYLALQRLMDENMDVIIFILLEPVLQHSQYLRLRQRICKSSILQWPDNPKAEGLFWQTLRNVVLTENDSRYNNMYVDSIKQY
The assay can be described thus: HEK293 SEAP reporter assay, other TLRs (Biological Example 3). Format: cell-based. To be noted: 16 hrs, * = Estimated. The source says: In this example, the activity of the Compound 1 to stimulate different human and mouse TLR pathways was investigated on HEK293 cells transfected with inducible SEAP (secreted embryonic alkaline phosphatase) reporter genes and also expressing different human TLRs (TLR2, TLR3, TLR4, TLR5, TLR7, TLR8, TLRS) or mouse TLRs (TLR2, TLR3, TLR4, TLR5, TLR7, TLR8, TLR13).
HEK293 reporter cell lines were purchased from Invivogen and cell lines were maintained in manufacture recommended culture medium with required supplemental antibiotics. On the day of assay, the cells were harvested with Accutase and counted by the Vi-CELL Cell Viability Analyzers. Cells were re-suspended in HEK blue detection medium and a total of 10000 cells were seeded in each well of a 384-well flat bottom plate. […] Assay plates were cultured at 37° C. in a CO2 incubator for 16 hrs. HEK-Blue™ Detection medium changes to a purple/blue color in the presence of secreted SEAP, which can be detected by spectrophotometry at 620-655 nm. Data was fitted with non-linear regression analysis, using a log(inhibitor) vs. response-variable slope, 3-parameter fit with GraphPad Prism.

What is called EC50 is the midpoint of the concentration-response curve. On to `CCCCn1nc2c(N)nc3ccccc3c2c1Cc1ccc(CN)cc1` [Compound 1, 1-(4-(aminomethyl)benzyl)-2-butyl-2H-pyrazolo[3,4-c]quinolin-4-amine], for which the 50% effective concentration (EC50) is around 401 nM.
